One test concerns the target T1, Neuropeptide Y Y2 (Homo sapiens, UniProt P49146).
T1 construct: purchased Eurofins Panlabs Discovery Services (Taiwan)
Briefly: off-target screen panel. Type of test: binding. As to conditions: Human KAN-TS cells, [^125I]Peptide YY.

The target of the next test is T2, Androgen (Testosterone) (Homo sapiens, UniProt P10275).
T2 construct: purchased Eurofins Panlabs Discovery Services (Taiwan)
Nature of the test: off-target screen panel. Type of test: binding. The settings on record: Human LNCaP clone, [^3H]Methyltrienolone.

For the next test, the target named is T3, Adrenergic β2 (Homo sapiens, UniProt P07550).
T3 construct: purchased Eurofins Panlabs Discovery Services (Taiwan)
Nature of the test: off-target screen panel. Type of test: binding. As to conditions: Human recombinant, [^3H]CGP-12177.

Another test addresses T4, Bradykinin B2 (Homo sapiens, UniProt P30411).
T4 construct: purchased Eurofins Panlabs Discovery Services (Taiwan)
Nature of the test: off-target screen panel. The class given is binding. The settings on record: Human recombinant, [^3H]Bradykinin.

The target in test [1] is T5, Leukotriene, Cysteinyl CysLT1 (Homo sapiens, UniProt Q9Y271).
T5 construct: purchased Eurofins Panlabs Discovery Services (Taiwan)
Nature of the test: off-target screen panel. Type of test: binding. As to conditions: Human recombinant, [^3H]LTD4.

The target in another test is T6, Adenosine A1 (Homo sapiens, UniProt P30542).
T6 construct: purchased Eurofins Panlabs Discovery Services (Taiwan)
Nature of the test: off-target screen panel. Type of test: binding. As to conditions: Human recombinant, [^3H]DPCPX.

For a further test, the target named is T7, Tachykinin NK1 (Homo sapiens, UniProt P25103).
T7 construct: purchased Eurofins Panlabs Discovery Services (Taiwan)
Briefly: off-target screen panel. Type of test: binding. The settings on record: Human recombinant, [^3H]Substance P.

The target in the next test is T8, Opiate δ1 (OP1, DOP) (Homo sapiens, UniProt P41143).
T8 construct: purchased Eurofins Panlabs Discovery Services (Taiwan)
Briefly: off-target screen panel. Type of test: binding. The settings on record: Human recombinant, [^3H]Naltrindole.

The next test deals with T9, Dopamine D4.2 (Homo sapiens, UniProt P21917, DEL265-296).
T9 construct: purchased Eurofins Panlabs Discovery Services (Taiwan)
Briefly: off-target screen panel. Type of test: binding. The settings on record: Human recombinant, [^3H]Spiperone.

The next test deals with PDE7. Nature of the test: PET imaging in monkeys with [^11C]MTP38. The class given is in vivo, rhesus monkeys. The settings on record: after unlabeled MTP38 iv bolus 0.075 mg/kg + infusion 0.3 mg/kg/h. As for the experimental part:
Each monkey underwent multiple PET scans with intervals longer than 2 weeks. The monkeys were given an intramuscular injection of 0.04 mg/kg of atropine sulfate at 1.5 h before radioligand injection. They were subsequently anesthetized with an intramuscular injection of ketamine (5 mg/kg) and xylazine (0.5 mg/kg), intubated, and kept anesthetized with 1–2% isoflurane. Heart rate, electrocardiogram, body temperature, blood oxygen saturation level, and end-tidal CO2 were monitored during the PET scan. The monkeys were placed on a bed in a supine position, and the head was fixed at the center of the field of view of a microPET scanner Focus220. A transmission scan was performed for about 20 min using a ^68Ge-^68Ga point source. A 90-min list-mode data acquisition was started simultaneously with intravenous administration of [^11C]MTP38 via a saphenous vein cannula. All list-mode data were sorted into 3D sinograms, which were then Fourier-rebinned into 2D sinograms (frames: 10 s × 6, 30 s × 8, 1 min × 5, 2 min × 10, and 5 min × 12). The images were corrected for attenuation and reconstructed with a filtered back-projection algorithm using a Hanning filter with a cut-off at the Nyquist frequency (0.5 mm^−1).
Along with baseline scans, we carried out blocking PET experiments according to the following pretreatment protocols: (1) unlabeled MTP38 was administered as an intravenous bolus (0.075 mg/kg) at 1 h before radioligand injection followed by continuous infusion at a rate of 0.3 mg/kg/h until the end of the PET scan, and (2) MTP-X (0.3–30 mg/kg) was administered orally at 2 or 6 h before radioligand injection.
PET scans for monkeys at baseline and following pretreatment with unlabeled MTP38, and 3, 10, 30 mg/kg of MTP-X were performed along with arterial blood sampling to obtain a metabolite-corrected input function. In total, 22 arterial blood samples were collected manually with heparinized syringes via a saphenous artery contralateral to the radioligand injection. Sampling was performed at 10, 20, 30, 40, 50, 60, 75, 90, 105, 120, 150, 180, and 210 s and at 4, 5, 10, 20, 30, 45, 60, 75, and 90 min after radioligand injection. Blood samples were then placed on ice and divided into two aliquots, one of which was centrifuged with a refrigerated centrifuge (15,000×g, 3 min, 4 °C) to obtain plasma.
PET images were co-registered onto the individual MR images. ROIs were placed on the prefrontal and medial frontal cortices, hippocampus, amygdala, striatum (caudate + putamen), nucleus accumbens, thalamus, cerebellum (gray matter), and brainstem. TACs in the baseline and blockade experiments were generated for each ROI.
Regional TACs were examined by several analytical methods to calculate the regional total distribution volume (VT), which represents the sum of non-specific and specific radioligand binding. Compartment model (1- or 2-tissue) and Logan’s graphical analyses were employed for describing the radioligand kinetics in the brain. The fractional blood volume was fixed at 0.05. For compartment model analyses, an optimal model was chosen on the basis of Akaike’s information criterion (AIC) and model selection criterion (MSC). For graphical analyses, an equilibration time t* was determined so that by the maximum error from the regression within the linear segment was considered to be 10% for each TAC. Time stability of VT was investigated by truncating the data duration stepwise from 90 min to 30 min. The VT values with or without pretreatment with a blocker were then compared. We also validated the use of the cerebellum as a reference tissue by this comparison, in addition to the autoradiographic findings, in monkey brain slices. The non-displaceable binding potential (BPND) was calculated by the original multilinear reference tissue model (MRTMO). t* was determined in the same manner as Logan’s graphical analysis. […]

The target in test [2] is T10, Serotonin (5-Hydroxytryptamine) 5-HT1A (Homo sapiens, UniProt P08908).
T10 construct: purchased Eurofins Panlabs Discovery Services (Taiwan)
Nature of the test: off-target screen panel. The class given is binding. As to conditions: Human recombinant, [^3H]8-OH-DPAT.

The target in another test is T11, Adenosine A3 (Homo sapiens, UniProt P0DMS8).
T11 construct: purchased Eurofins Panlabs Discovery Services (Taiwan)
Nature of the test: off-target screen panel. Type of test: binding. As to conditions: Human recombinant, [^125I]AB-MECA.

Another test concerns the target T12, Adrenergic α1A (Rattus norvegicus, UniProt P43140).
T12 construct: purchased Eurofins Panlabs Discovery Services (Taiwan)
Briefly: off-target screen panel. Type of test: binding. The settings on record: Rat submaxillary gland, [^3H]Prazosin.

The next test concerns the target T13, Cannabinoid CB1 (Homo sapiens, UniProt P21554).
T13 construct: purchased Eurofins Panlabs Discovery Services (Taiwan)
Briefly: off-target screen panel. The class given is binding. The settings on record: Human recombinant, [^3H]SR141716A.

The target in a further test is T14, Prostanoid EP4 (Homo sapiens, UniProt P35408).
T14 construct: purchased Eurofins Panlabs Discovery Services (Taiwan)
Nature of the test: off-target screen panel. Type of test: binding. The settings on record: Human recombinant, [^3H]Prostaglandin E2 (PGE2).

For the next test, the target named is T15, Histamine H3 (Homo sapiens, UniProt Q9Y5N1).
T15 construct: purchased Eurofins Panlabs Discovery Services (Taiwan)
Nature of the test: off-target screen panel. Type of test: binding. As to conditions: Human recombinant, [^3H]N-α-Methylhistamine.

The next test deals with T16, Opiate μ (OP3, MOP) (Homo sapiens, UniProt P35372).
T16 construct: purchased Eurofins Panlabs Discovery Services (Taiwan)
Nature of the test: off-target screen panel. Type of test: binding. As to conditions: Human recombinant, [^3H]Diprenorphine.

In test [3] the target is T17, Platelet Activating Factor (PAF) (Homo sapiens, UniProt P25105).
T17 construct: purchased Eurofins Panlabs Discovery Services (Taiwan)
Briefly: off-target screen panel. The class given is binding. The settings on record: Human platelets, [^3H]PAF.

The source of these data is publication PMC8426238, “Synthesis and preclinical evaluation of [^11C]MTP38 as a novel PET ligand for phosphodiesterase 7 in the brain” (European Journal of Nuclear Medicine and Molecular Imaging, 2021).

T13 sequence (P21554 whole entry): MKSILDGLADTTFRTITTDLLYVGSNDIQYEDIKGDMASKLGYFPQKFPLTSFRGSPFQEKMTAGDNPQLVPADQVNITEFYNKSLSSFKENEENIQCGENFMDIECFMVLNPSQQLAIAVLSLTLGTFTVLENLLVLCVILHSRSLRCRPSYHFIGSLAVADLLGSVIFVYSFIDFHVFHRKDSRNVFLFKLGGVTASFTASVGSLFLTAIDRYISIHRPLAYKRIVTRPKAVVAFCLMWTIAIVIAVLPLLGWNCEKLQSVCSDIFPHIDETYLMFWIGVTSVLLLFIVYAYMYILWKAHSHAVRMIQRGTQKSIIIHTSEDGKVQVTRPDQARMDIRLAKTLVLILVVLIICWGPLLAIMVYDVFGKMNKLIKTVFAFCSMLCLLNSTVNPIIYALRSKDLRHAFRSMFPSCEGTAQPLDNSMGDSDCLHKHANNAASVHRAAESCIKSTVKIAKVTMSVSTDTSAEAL
T8 sequence (P41143 whole entry): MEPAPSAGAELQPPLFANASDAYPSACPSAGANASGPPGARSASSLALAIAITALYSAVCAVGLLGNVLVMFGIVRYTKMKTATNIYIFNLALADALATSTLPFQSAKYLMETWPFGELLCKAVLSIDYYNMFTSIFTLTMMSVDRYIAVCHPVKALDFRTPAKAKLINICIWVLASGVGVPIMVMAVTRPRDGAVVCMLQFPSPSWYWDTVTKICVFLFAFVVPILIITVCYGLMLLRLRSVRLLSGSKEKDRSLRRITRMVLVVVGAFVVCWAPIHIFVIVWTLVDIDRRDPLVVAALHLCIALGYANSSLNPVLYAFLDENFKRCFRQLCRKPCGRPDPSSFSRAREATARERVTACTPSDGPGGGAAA
T3 sequence (P07550 whole entry): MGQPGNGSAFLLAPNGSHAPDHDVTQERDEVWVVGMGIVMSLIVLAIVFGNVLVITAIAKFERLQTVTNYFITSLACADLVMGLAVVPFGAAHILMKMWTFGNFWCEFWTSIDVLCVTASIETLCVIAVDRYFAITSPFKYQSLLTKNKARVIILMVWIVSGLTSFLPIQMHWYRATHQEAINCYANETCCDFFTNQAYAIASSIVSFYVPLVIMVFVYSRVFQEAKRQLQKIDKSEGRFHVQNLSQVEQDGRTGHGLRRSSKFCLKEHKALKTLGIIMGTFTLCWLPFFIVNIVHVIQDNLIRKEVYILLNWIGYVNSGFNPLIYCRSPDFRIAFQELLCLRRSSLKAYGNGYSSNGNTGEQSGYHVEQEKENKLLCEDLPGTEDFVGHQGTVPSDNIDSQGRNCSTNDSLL
T11 sequence (P0DMS8 whole entry): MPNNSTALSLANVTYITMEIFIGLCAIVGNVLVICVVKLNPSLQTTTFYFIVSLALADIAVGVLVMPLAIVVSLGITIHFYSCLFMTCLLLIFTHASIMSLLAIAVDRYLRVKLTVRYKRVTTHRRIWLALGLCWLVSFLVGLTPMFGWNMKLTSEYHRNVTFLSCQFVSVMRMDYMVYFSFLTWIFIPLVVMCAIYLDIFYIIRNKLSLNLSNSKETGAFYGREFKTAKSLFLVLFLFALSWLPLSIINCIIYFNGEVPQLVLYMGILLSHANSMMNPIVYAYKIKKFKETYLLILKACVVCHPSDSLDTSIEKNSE
T17 sequence (P25105 whole entry): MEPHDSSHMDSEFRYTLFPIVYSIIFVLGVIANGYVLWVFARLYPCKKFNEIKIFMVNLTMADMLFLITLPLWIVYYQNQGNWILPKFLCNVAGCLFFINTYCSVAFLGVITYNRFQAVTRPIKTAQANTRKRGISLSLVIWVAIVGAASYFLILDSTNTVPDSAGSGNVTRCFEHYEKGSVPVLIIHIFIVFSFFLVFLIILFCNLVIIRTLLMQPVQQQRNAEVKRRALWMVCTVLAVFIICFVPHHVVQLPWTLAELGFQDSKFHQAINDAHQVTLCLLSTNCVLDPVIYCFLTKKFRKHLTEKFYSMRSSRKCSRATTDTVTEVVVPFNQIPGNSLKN
T12 sequence (P43140 whole entry): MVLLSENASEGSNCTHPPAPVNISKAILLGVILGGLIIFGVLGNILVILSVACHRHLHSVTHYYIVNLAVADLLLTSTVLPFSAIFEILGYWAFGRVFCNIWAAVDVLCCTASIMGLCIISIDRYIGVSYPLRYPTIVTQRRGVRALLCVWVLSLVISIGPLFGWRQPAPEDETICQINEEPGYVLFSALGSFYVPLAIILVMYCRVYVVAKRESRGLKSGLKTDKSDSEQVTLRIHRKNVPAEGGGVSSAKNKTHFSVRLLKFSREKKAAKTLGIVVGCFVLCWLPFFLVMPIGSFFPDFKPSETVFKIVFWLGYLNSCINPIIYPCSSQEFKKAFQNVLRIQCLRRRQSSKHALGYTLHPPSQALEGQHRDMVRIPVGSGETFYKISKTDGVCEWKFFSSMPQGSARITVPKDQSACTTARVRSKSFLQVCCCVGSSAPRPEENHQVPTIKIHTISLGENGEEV
T4 sequence (P30411 whole entry): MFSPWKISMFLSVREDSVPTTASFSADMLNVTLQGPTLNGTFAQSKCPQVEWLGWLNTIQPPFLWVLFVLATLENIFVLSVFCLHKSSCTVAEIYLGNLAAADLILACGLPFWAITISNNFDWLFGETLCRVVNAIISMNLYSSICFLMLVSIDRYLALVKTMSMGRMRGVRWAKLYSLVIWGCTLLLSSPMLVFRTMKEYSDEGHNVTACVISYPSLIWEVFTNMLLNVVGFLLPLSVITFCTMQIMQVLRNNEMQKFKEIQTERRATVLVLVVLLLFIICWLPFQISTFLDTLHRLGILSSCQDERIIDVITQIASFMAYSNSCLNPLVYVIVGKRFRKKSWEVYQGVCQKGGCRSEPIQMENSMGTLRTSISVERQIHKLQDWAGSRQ
T6 sequence (P30542 whole entry): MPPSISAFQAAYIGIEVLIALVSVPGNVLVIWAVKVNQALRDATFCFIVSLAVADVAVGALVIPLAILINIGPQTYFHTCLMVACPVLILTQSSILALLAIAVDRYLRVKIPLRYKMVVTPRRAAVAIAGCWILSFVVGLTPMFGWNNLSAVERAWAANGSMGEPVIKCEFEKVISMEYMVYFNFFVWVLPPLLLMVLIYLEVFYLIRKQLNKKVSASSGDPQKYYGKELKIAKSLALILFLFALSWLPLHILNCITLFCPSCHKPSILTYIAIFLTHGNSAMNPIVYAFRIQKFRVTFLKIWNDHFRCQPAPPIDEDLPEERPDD
T2 sequence (P10275 whole entry): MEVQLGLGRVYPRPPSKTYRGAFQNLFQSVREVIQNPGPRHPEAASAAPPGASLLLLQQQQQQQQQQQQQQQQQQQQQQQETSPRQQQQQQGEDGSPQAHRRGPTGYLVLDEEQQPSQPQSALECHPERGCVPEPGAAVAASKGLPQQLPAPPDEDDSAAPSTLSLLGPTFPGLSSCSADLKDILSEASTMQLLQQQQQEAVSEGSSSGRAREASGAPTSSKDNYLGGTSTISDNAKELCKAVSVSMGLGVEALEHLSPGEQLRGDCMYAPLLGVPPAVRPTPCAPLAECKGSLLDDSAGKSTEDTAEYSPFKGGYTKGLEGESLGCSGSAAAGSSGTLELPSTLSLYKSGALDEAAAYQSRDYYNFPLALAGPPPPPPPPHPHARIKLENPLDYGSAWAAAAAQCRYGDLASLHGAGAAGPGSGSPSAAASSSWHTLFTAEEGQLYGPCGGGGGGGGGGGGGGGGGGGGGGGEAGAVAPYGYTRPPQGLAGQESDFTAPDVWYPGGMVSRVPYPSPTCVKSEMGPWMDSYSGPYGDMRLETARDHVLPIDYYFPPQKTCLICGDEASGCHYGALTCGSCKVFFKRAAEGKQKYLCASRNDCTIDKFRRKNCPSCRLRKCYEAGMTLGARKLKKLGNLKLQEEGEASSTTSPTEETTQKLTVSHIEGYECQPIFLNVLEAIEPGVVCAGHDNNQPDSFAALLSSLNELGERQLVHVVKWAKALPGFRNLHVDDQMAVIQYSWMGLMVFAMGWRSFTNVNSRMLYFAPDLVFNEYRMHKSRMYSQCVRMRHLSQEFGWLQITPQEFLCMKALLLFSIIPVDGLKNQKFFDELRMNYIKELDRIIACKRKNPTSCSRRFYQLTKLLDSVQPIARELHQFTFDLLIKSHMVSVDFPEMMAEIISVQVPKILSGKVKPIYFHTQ
T14 sequence (P35408 whole entry): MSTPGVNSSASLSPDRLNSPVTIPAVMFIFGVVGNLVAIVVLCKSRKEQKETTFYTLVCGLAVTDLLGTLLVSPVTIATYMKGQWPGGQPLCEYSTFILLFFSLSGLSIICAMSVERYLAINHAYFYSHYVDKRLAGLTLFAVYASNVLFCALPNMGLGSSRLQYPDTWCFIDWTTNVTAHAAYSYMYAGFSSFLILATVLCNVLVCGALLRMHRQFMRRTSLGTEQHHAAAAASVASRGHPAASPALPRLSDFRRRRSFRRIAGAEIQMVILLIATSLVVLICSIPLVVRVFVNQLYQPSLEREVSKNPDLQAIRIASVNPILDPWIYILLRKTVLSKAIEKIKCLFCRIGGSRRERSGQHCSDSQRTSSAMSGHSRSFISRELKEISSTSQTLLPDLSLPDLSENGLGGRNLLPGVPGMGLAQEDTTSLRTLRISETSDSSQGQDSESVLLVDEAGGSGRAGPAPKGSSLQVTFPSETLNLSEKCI
T16 sequence (P35372 whole entry): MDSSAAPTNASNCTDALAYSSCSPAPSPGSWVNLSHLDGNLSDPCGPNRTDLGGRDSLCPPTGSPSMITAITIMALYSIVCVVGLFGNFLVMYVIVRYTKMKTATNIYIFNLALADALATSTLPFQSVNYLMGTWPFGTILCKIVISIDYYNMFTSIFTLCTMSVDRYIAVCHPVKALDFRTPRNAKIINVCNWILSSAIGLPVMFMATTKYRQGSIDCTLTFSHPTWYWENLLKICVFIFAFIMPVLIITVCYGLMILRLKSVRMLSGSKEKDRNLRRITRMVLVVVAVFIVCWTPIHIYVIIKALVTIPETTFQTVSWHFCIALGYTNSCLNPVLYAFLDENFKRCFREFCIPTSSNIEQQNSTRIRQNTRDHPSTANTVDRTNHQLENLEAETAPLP

`C[C@@H]1CC[C@H](C)N(c2nnc3c(N)ncc(C#N)n23)C1` (relative stereo) [MTP38, 8-amino-3-(2S*,5R*-dimethyl-1-piperidyl)-[1,2,4]triazolo[4,3-a]pyrazine-5-carbonitrile]: the inhibition at 1 µM against Neuropeptide Y Y2 was 6%; against Androgen (Testosterone), 1%; at Adrenergic β2, -14%; at Bradykinin B2, 2%; in test [1], 4%; at Adenosine A1, -12%. Also, the inhibition at 1 µM at Tachykinin NK1 is 9%; at Opiate δ1 (OP1, DOP), -4%; on Dopamine D4.2 it was -3%; in test [2], -5%; at Adenosine A3, 10%; at Adrenergic α1A, 8%. Besides, the inhibition at 1 µM at Cannabinoid CB1 was -6%; at Prostanoid EP4, 8%; at Histamine H3, 9%; on Opiate μ (OP3, MOP) it was 4%; in test [3], 4%. The entries for the “Striatal BPND of [^11C]MTP38” value in the test with PDE7 (monkey #1) and in the test with PDE7 (monkey #2) were 0.157 and 0.017, respectively.

The inhibition is the relative decrease from the control value, in per cent.
